In publication PMC9581421, “Functional analysis of a bitter gustatory receptor highly expressed in the larval maxillary galea of Helicoverpa armigera” (PLoS Genetics, 2022):

Molecular target: T1, Gr180 (Helicoverpa armigera, UniProt Z9OE30KH69)
T1 construct: wild type 411 residues (239 + 172 as printed); seven TM domains predicted
T1 sequence (Z9OE30KH69 1-411): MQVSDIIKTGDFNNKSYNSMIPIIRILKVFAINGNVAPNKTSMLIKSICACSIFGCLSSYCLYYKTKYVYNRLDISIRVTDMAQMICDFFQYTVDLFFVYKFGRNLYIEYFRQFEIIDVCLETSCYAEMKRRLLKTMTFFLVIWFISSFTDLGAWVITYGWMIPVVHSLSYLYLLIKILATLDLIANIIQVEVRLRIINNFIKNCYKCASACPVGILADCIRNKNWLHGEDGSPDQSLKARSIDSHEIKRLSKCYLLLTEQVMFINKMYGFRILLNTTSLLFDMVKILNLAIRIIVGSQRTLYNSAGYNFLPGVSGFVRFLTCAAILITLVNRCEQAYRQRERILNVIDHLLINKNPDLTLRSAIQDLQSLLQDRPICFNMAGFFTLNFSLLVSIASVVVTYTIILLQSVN
Assay: two-electrode voltage clamp, Xenopus oocytes
Assay type: cell-based
Conditions: 10^-2 M coumarin in Ringer solution; holding potential -80 mV; Gr180 expressed alone; agonist

average current at 10^-2 M: 241 nA
SMILES: O=c1ccc2ccccc2o1 [coumarin]
